Test results: patent publication US5760001A, “Cytokine restraining agents and methods of use in pathologies and conditions associated with altered cytokine levels” (Trega Biosciences, Inc., priority 1995, dated 1998)

Experiments:
Type in all cases: in vivo
female Balb/c mice = experiment: Arachidonic acid-induced ear swelling; details: 100 μg/mouse IP 30 min prior to AA; 60 min after AA application
Procedure: Experiments were performed using female Balb/c mice weighing 18-23 grams. Saline or 100 μg EX-2 or EX-3 was administered IP, 30 min prior to topical application of arachidonic acid (AA). A 10 μl pipet was used to apply 10 μl AA solution (100 mg/ml ethanol; Calbiochem-Novabiochem; San Diego Calif.) to the inner and outer surfaces of the right ear of each mouse. Ten μl ethanol, alone, was applied to the inner and outer surface of the left ear of each mouse.
Ear thickness was measured with a hand-held spring loaded caliper immediately before and 60 min after AA application. Increase in ear thickness was calculated by subtracting the change observed in the control ear from the change observed in AA-treated ear. The value for each group (saline and control) is the average of the swelling observed in the individual mice in each group. The percent reduction of swelling is based on the swelling observed in the saline control group.

adult female Balb/c mice [1] = experiment: LPS-induced lethality (IP dosing); details: 11 × 300 μg/mouse IP (3.3 mg), every 4 hr; 0.6 mg LPS; vs control mice
Procedure: These experiments were performed based on information reported by Rivier et al., Endocrinology 125:2800-2805 (1989), which is incorporated herein by reference. Adult female Balb/c mice were provided food and water ad libitum. Mice were injected IP every four hr for 40 hr with 30 to 300 μg EX-2, EX-3 or EX-4 in 0.2 ml saline (treated group) or with 0.2 ml saline, alone (control group) (10 mice per group). Immediately following the first injection, 0.6 mg LPS endotoxin in 0.2 ml saline was administered to each mouse. Following LPS injection, EX-2 or saline was administered to the treated mice or the control mice, respectively, every 4 hr for 36 hr.

male Sprague-Dawley rats = experiment: Glomerulonephritis (nephrotoxic serum), albuminuria; details: EX-2 100 μg/kg per injection, 3 times per day; nephrotoxic serum iv
Procedure: Male Sprague-Dawley rats (weight 194-248 g) were immunized by subcutaneous injection of 1 mg normal rabbit IgG (Sigma Chemical Co.) in Freund's complete adjuvant (Sigma Chemical Co.). EX-2 was administered 3 times per day (100 μg/kg per injection) throughout the duration of the experiment. Seven days later, the rats were injected with 1.5 ml of nephrotoxic serum iv via dorsal penile vein. Urine, plasma, and serum were collected before injection of nephrotoxic serum at 4, 6, 24, 48, and 96 hr thereafter. […] Albuminuria was quantified by immunoelectrophoresis.

Sprague-Dawley rats = experiment: Renal ischemia-reperfusion injury; parameters: RVR (renal vascular resistance): unit not given here; details: I/R + EX-2 (50 or 500 μg/kg iv before 1 hr clamping), after 60 min reperfusion
Procedure: Sprague-Dawley rats (250-300 g) were anesthetized with Inactin® (120 mg/kg). After deep anesthesia was assured, the rats were cannulated in the trachea with polyethylene (PE) tubing (PE 240), jugular vein, femoral artery, bladder (PE 50 for previous 3 cannulations), and left ureter (stretched PE 50). Once cannulation was completed, a 2 cm flank incision above the left kidney was performed and the renal pelvis and vascular bundle were exposed. The tissue surrounding the left renal artery was gently dissected away from the artery. The exposed renal artery was clamped for 1 hr using a small vascular cross-over clamp.
Just prior to clamping, EX-2 (50 or 500 μg/kg), ketorolac (KETO, 1 mg/kg), or vehicle was administered intravenously (iv) After 1 hr of clamping (ischemia), the clamp was gently removed with care taken to avoid damaging either the renal artery or nerves. An infusion of ^3 H-Inulin (NEN/Dupont; Wilmington, Del.), (0.6 μCi/ml in phosphate buffered saline (PBS)) (2 ml/hr) was initiated at a constant rate of […]. After 60 min of reperfusion, glomerular filtration rate (GFR), renal plasma flow (RPF) and renal vascular resistance (RVR) were assessed in two 30 min collection periods. The kidney was then removed for analysis. Sham operated and clamped rats served as controls for the above group. Contralateral renal function was utilized to determine the stability of the rat's renal function during the measured period.

Male Shelton rabbits = experiment: Morphine-induced respiratory depression; details: 10 + 20 + 20 μg/kg/rabbit iv; at end of experiment (80 min)
Procedure: Male Shelton rabbits (3-4 kg) were restrained and fitted around the thorax, just behind the front limbs, with a respiration transducer (Model F-RCT; Grass Instruments; Quincy Mass.). The transducer was connected to a grass polygraph via an EKG cable. An intravenous line was established for drug administration by cannulating the marginal ear vein using a 25G butterfly needle.
Rabbit breathing was allowed to stabilize, then. morphine sulfate (2 mg/kg in 0.5 ml saline) was administered by intravenous (iv) injection and respiratory rate and depth were monitored for 10 min. A second dose of morphine was administered, then, after 10 min, EX-2 or EX-3 (10 μg/kg in 0.5 ml saline) was administered, iv, and rabbits were monitored for 20 min. Two additional doses of EX-2 or EX-3 (20 μg/kg in 1.0 ml saline) were administered at 20 min intervals, i.e., 40 min and 60 min after the first morphine injection.
Results were calculated as the percent change from baseline values and are expressed as the difference of the mean value of the treated group minus the mean value of the control group at the end of the experiment (80 min).

adult female Balb/c mice [2] = experiment: Carageenan-induced paw swelling; details: 1 μg/mouse; measured at the 2 hr time point
Procedure: Carageenan-induced paw swelling was induced using a modification of the methods of Hiltz and Lipton, Peptides 11:979-982 (1990); Vinegar et al., Fed. Proc. 46:118-1.26 (1987); and Vinegar et al., J. Pharmacol. Expt. Therap. 166:96-103 (1969), each of which is incorporated herein by reference. Briefly, adult female Balb/c mice were anesthetized by IP injection of 7 mg/kg ketoamine and 0.6 mg/kg rompun. Foot pad thickness was measured using a spring loaded micrometer (Swiss Precision Instruments). Foot pad thickness was expressed in units of 1/100 inch. After baseline measurements were obtained, mice were injected into a hind foot pad with either 0.2 ml physiologic saline (control) or varying doses of EX-2 or EX-3 in 0.2 ml saline (treated). The first injection was followed immediately by injection of 0.02 ml of 0.15% κ-carageenan (Sigma Chemical Co.; St. Louis, Mo.).
Hind foot pad thickness was measured hourly for six hr, the change in thickness was determined and the percent reduction in swelling due to treatment with EX-2 was calculated.

“Ac-Nle-Gln-His-(D)Phe-Arg-(D)Trp-Gly-NH2 [EX-2]” was tested, and the “Reduction in arachidonic acid-induced Ear Swelling” value (female Balb/c mice) was 72%, the “Inhibition of LPS-induced Lethality (increase in survival)” value (adult female Balb/c mice [1]) was 83% and the “Glomerulonephritis: Albumin (mg/day), % Reduction of induced increase” value (male Sprague-Dawley rats) was 62%. The “GFR (glomerular filtration rate)” value (Sprague-Dawley rats; I/R + PBS 0.2 ± 0.1, Sham 1.0 ± 0.1) was 0.5 ± 0.1, the “RPF (renal plasma flow)” value (Sprague-Dawley rats; I/R + PBS 0.8 ± 0.2, Sham 4.2 ± 0.4) was 2.3 ± 0.3 and the “RVR (renal vascular resistance)” value (Sprague-Dawley rats; I/R + PBS 6.6 ± 2.1, Sham 1.0 ± 0.1) was 1.8 ± 0.2. For the same substance, the “Reduction in Morphine-induced Respiratory Depression” value (Male Shelton rabbits) was 50% and the “Reduction in Carageenan-induced Paw Swelling” value (adult female Balb/c mice [2]) was 45%.
